This note sets out measurements from PMC4473678, “Swedish mutant APP-based BACE1 binding site peptide reduces APP β-cleavage and cerebral Aβ levels in Alzheimer’s mice” (Scientific Reports, 2015).

Entries after “also recorded” stand apart in the source; their conditions may differ.

The term inhibition denotes how much of the control response was suppressed.

One assay deals with BACE1 in CHO/APPwt cells. The experiment in a line: IP/WB of BACE1 binding in CHO/APPwt cell lysates. The arrangement: species or system Chinese hamster. To be noted: biotin-labeled peptide 20 μM, 30 min, anti-biotin IP, listed as TAT-APPsweBBP.
Assay [1] relates to 5XFAD mice. The experiment in a line: Radial arm water maze (RAWM), 5XFAD mice. The assay is classed as in vivo, mouse. The following applies: 100 nmol/kg i.p. daily, 8 weeks, n = 10 per treatment, 5 female/5 male, listed as TAT-APPsweBBP. As for the experimental part: (§1) Transgenic AD mice [5XFAD; B6SJL-Tg(APPSwFlLon,PSEN1*M146L*L286V) 6799Vas/Mmjax] at 2.5 months of age were obtained from the Jackson Laboratory (Bar Harbor, ME) and housed and maintained in the Animal Facility of College of Medicine at University of South Florida (USF). The mice at 3.5 months of age were treated with TAT-APPsweBBP, TAT peptide (100 nmol/kg in 100 μL PBS) or PBS (100 μL) daily by intraperitioneal injection (i.p.) for eight consecutive weeks. The mice were subjected to behavioral testing after 8-week treatment and then euthanized for immunohistochemical, WB and ELISA analyses. Animals were housed and maintained at USF and all experiments were in compliance with protocols approved by USF Institutional Animal Care and Use Committee. All methods were performed in accordance with relevant guidelines and regulations.
Spatial learning and memory performance was tested for each mouse using the Two-day Radial Arm Water Maze (RAWM) test[49]. The RAWM was carried out in a 100-cm circular pool with six swim alleys radiating from a common circular swim area. An escape platform was placed near the end of one arm, which forces mice to use working memory to perform this task. On day 1, mice are trained for 15 trials (5 blocks, 3 trials per block), with trials alternating between visible and hidden platform. […] Cognitive ability was assessed as the number of entry-arm errors.

The subject of assay [2] is recombinant BACE1 protein. Briefly: Immunoprecipitation/WB of peptide-BACE1 binding, cell-free. To be noted: 10 μg biotin-labeled peptide with 10 μL recombinant BACE1 (1.0 U/mL), 4 h, 37 °C; anti-BACE1 IP/anti-biotin WB and reverse; listed as TAT-APPsweBBP. Here is the method: In order to confirm that APPsweBBP containing the β-cleavage site could bind to and be consequently proteolyzed by BACE1, 10 μg of biotin-labeled TAT-APPsweBBP was incubated with or without 10 μL of recombinant BACE1 protein (1.0 U/mL) in BACE1 reaction buffer for 4 h at 37 °C and then subjected to WB analysis as described previously. In addition, we performed immunoprecipitation (IP) and WB analyses of this mixture with anti-BACE1 and anti-biotin antibodies to confirm that TAT-APPsweBBP, but not TAT, specifically binds to BACE1.

In the next assay the test system is recombinant BACE1. The experiment in a line: BACE1 activity (FRET) assay, cell-free. The assay is classed as biochemical. As for the experimental part: The BACE1 inhibiting activity of APP-based BACE1 site binding peptides were determined using a fluorescence resonance energy transfer (FRET) assay (Pan Vera Co., Madison, WI), which employs a recombinant baculovirus-expressed BACE1 and a specific substrate (Rh-[…]-quencher) that is based on the APPswe mutation. This specific peptide substrate becomes highly fluorescent upon enzymatic cleavage. […] Then, 10 μL of BACE1 stop buffer (2.5 M sodium acetate) was added to the mixture. Fluorescence was read using a fluorometer, with excitation at 545 nm and emission at 585 nm.

The subject of assay [3] is WT mice. The experiment in a line: Radial arm water maze (RAWM), WT mice. The assay is classed as in vivo, mouse. To be noted: 100 nmol/kg i.p. daily, 8 weeks, n = 10 per treatment, listed as TAT-APPsweBBP.
The subject of assay [4] is 5XFAD mice. Briefly: WB of APP processing products in brain homogenates, 5XFAD mice. The assay is classed as in vivo, mouse. To be noted: 8 weeks. Here is the method: as §1
(§2) WB analysis was performed as previously described. Briefly, the proteins from the various cell-free suspensions, cell lysates and brain homogenates were electrophoretically separated using 10% bicine/tris gel (8 M urea) for proteins less than 5 kD or 10% tricine/tris gels for larger proteins. Electrophoresed proteins were transferred to polyvinylidene difluoride membranes (Bio-Rad, Richmond, CA), washed and blocked for 2 h at room temperature in Tris-buffered saline containing 5% (w/v) nonfat dry milk (TBS/NFDM). After blocking, membranes were hybridized for 2 h with various primary antibodies, washed and incubated for 1 h with the appropriate HRP-conjugated secondary antibody in TBS/NFDM. Blots were developed using the luminol reagent (Thermo Fisher Scientific, Waltham, MA).

The next assay has as its system CHO/APPswe cells. The experiment in a line: APP processing in CHO/APPswe cells (WB, ELISA). The assay is classed as cell-based, Chinese hamster. The following applies: 0 to 20 μM, 24 h. As for the experimental part:
Chinese hamster ovary (CHO) cells engineered to express human APPwt (CHO/APPwt cells) or human APPswe (CHO/APPswe cells) were kindly provided by Dr. Stefanie Hahn and Dr. Sascha Weggen (University of Heinrich Heine, Dusseldorf, Germany). As described in our recent report, these cells were cultured in Dulbecco’s modified Eagle’s medium with 10% fetal bovine serum, 1 mM sodium pyruvate and 100 U/mL of penicillin/streptomycin.
Following application of blocking buffer, these cells were stained with mouse anti-BACE1 and anti-biotin antibodies overnight at 4 °C for immunocytochemical analysis. In order to determine the inhibitory effects of TAT-APPsweBBP on BACE1-mediated APP β-cleavage and subsequent Aβ production, both CHO/APPwt and CHO/APPswe cells were plated in 24 well-plates (3×10^5/well) and treated with TAT-APPsweBBP at 0 to 20 μM for 24 h. The cultured media were collected for Aβ and sAPPα analysis by ELISA and WB. Cell lysates were also prepared for analysis of APP amyloidogenic processing by WB.
as §2
Mouse brains were homogenized in ice-cold lysis buffer for 30 s using a Minilys tissue homogenizer (Bertin Technologies, Montigny-le-Bretonneux, France) set at high speed, allowed to stand for 15 min at 4 °C, and centrifuged at 15000 rpm for 30 min. Soluble Aβ1−40/42 species and sAPPα were directly detected in cultured cell media or brain homogenates using the Aβ1−40/42 (Invitrogen) and sAPPα ELISA kits (IBL-America, Minneapolis, MN). Detergent-insoluble total […] species were detected in brain by extracting pellets in 5 M guanidine HCl buffer, followed by a 1:20 dilution in lysis buffer.
In general terms: ELISA stands for enzyme-linked immunosorbent assay.

For assay [5], the system named is WT mice. Briefly: Rotarod test, WT mice. In kind it is in vivo, mouse. The following applies: 100 nmol/kg i.p. daily, 8 weeks, n = 10 per treatment. Background: Falling from the rotarod earlier than controls is read as motor impairment.
Where [6] appears, read: WB 6E10, listed as TAT-APPsweBBP.
[7] abbreviates: *P < 0.05, **P < 0.01, three independent experiments, each triplicated.

On to “YGRKKRRQRRREISEVNLDAEFR [APPsweBBP conjugated with the membrane fusion fragment of HIV-1 Tat protein]”, for which the “binding to BACE1 in cell lysates” value with BACE1 in CHO/APPwt cells was “strongly and specifically binds to BACE1; also recorded: markedly bound to BACE1 compared to APPsweBBP”. In addition, in the assay with 5XFAD mice [1], the “RAWM entry-arm errors (learning and memory)” value was “significantly fewer errors, compared to TAT- and PBS-treated mice; also recorded: enhanced cognitive ability, as evidenced by fewer errors”. The “binding to BACE1 (co-immunoprecipitation)” value in assay [2] was “binds to BACE1 protein; also recorded: strongly binds to”. Further, the “BACE1 inhibition (result in words)” value with recombinant BACE1 (FRET assay, APPsweBBP or TAT-APPsweBBP at 0.05, 0.5, 5 and 20 μM (Fig. 1)) is recorded as “competitively inhibits BACE1 activity; also recorded: much higher inhibiting activity than its prototype peptide”. Moreover, the inhibition in the assay on recombinant BACE1 (FRET assay, peptide final concentration 20 μM, 90 min, room temperature, read-out: percentage inhibition of BACE1) turned out to be 93.2 ± 2.73%. Also, in the assay with recombinant BACE1 (peptide final concentration 20 μM, FRET substrate Rh-EVNLDAEFK-quencher, 90 min, room temperature, dark, ex 545/em 585 nm, mean ± SD), the “% of Inhibition of BACE1” value is on record as 93.23 ± 2.73%. In addition, the RAWM entry-arm errors entry in the assay with WT mice [3] is on record as “no difference among the various treatment groups; also recorded: no significant difference between WT treatment groups”. Also, in the assay with 5XFAD mice [4] (setting [6]), the “total cerebral soluble Aβ (Aβs) by WB” value is given as “much lower levels; also recorded: reduced total cerebral soluble Aβ” and the “β-CTF by WB” value is reported as “much lower levels; also recorded: reduced”. The “band density ratio of β-CTF to holo-APP” value with 5XFAD mice [4] (densitometry, versus TAT and PBS, **P < 0.01) is “significantly reduces the band density ratios of β-CTF to holo-APP, compared to TAT- and PBS-treatments (**P < 0.01)”. In addition, the “total APP expression by WB” value in the assay with 5XFAD mice [4] (listed as TAT-APPsweBBP) is reported as “without notable alteration on total APP expression; also recorded: without significantly altering total APP expression”. In the assay with CHO/APPswe cells, the “holo APP expression by WB” value is reported as “leaving holo APP expression unaltered”, the “sAPPα by WB” value is on record as “promoting” and the “β-CTF by WB” value is given as “markedly inhibited”. For the same sequence, in the assay with CHO/APPswe cells (setting [7]), the “Aβ1−40/42 by ELISA” value is “significantly decreased” and the “sAPPα by ELISA” value is listed as “increased sAPPα levels in a dose-dependent manner”. Further, the “Aβ by WB” value with CHO/APPswe cells (listed as TAT-APPsweBBP) was “markedly decreased Aβs; also recorded: markedly inhibited”. Further, in the assay on WT mice [5], the “rotarod latency to fall” value is reported as “no differences between treatment groups on each day”.
